Assay [1] in a line: Inhibition of N-terminal His6-tagged Trypanosoma cruzi HGPRT isoform C expressed in Escherichia coli C43(DE3) cells assessed as inhibition of IMP formation using hypoxanthine as substrate by spectrophotometric assay.
A short description of assay [2]: Inhibition of N-terminal His6-tagged HGXPRT expressed in Escherichia coli BL21 cells assessed as reduction in NADH absorbance using hypoxanthine as substrate by IMPDH coupled assay. Details: species or system Plasmodium falciparum.
Assay [3] can be described thus: Inhibition of N-terminal His6-tagged Trypanosoma cruzi HGXPRT isoform B expressed in Escherichia coli BL21(DE3) cells assessed as inhibition of IMP formation using hypoxanthine as substrate by spectrophotometric assay.

Here are results for 13 molecules from ChEMBL document CHEMBL5214974, “The design of protozoan phosphoribosyltransferase inhibitors containing non-charged phosphate mimic residues” (Bioorg Med Chem, 2022).

What is called Ki is a dissociation constant, usually derived from enzyme kinetics or from competition with a known ligand. In the case of `O=c1[nH]cnc2c(CN[C@H](CO)CCP(=O)(O)O)c[nH]c12`, the Ki in assay [1] is 0.011 µM; in assay [2], 0.00065 µM.
As for `O=C1CN(CC[C@@H](CO)NCc2c[nH]c3c(O)nc(O)nc23)S(=O)(=O)N1`, the Ki in assay [1] is greater than 130 µM; in assay [2] it was greater than 20 µM; in assay [3] it was greater than 140 µM.
In the case of `O=P(O)(O)CC[C@@H](CO)NCc1c[nH]c2c(O)nc(O)nc12`, the Ki in assay [1] was 18 µM; in assay [2], 8 µM.
In the same order, the values of `Nc1nc(O)c2[nH]cc(CN[C@H](CO)CCP(=O)(O)O)c2n1` are 0.03 µM and 0.0005 µM.
Turning to `NS(=O)(=O)NC[C@@H](CO)NCc1c[nH]c2c(O)ncnc12`, the Ki in assay [1] is greater than 130 µM; in assay [2], greater than 20 µM; in assay [3], greater than 140 µM.
In the same order, the values of `O=C1N[C@@H]([C@@H](CO)NCc2c[nH]c3c(O)ncnc23)CO1` are greater than 130 µM, greater than 20 µM and greater than 140 µM.
In the same order, the values of `O=c1cc([C@@H](CO)NCc2c[nH]c3c(O)ncnc23)o[nH]1` are greater than 130 µM, greater than 20 µM and greater than 140 µM.
In the same order, the values of `O=c1c(O)c(NCC[C@@H](CO)NCc2c[nH]c3c(O)ncnc23)c1=O` are greater than 130 µM, greater than 20 µM and greater than 140 µM.
As for `O=c1c(O)c(NC[C@@H](CO)NCc2c[nH]c3c(O)ncnc23)c1=O`, the Ki in assay [1] is greater than 130 µM; in assay [2], greater than 20 µM; in assay [3], greater than 140 µM.
In the same order, the values of `NS(=O)(=O)NC[C@@H](CO)NCc1c[nH]c2c(O)nc(O)nc12` are greater than 130 µM, greater than 20 µM and greater than 140 µM.
In the same order, the values of `O=C1CN(C[C@@H](CO)NCc2c[nH]c3c(O)nc(O)nc23)S(=O)(=O)N1` are greater than 130 µM, greater than 20 µM and greater than 140 µM.
In the same order, the values of `O=C1CN(CC[C@@H](CO)NCc2c[nH]c3c(O)ncnc23)S(=O)(=O)N1` are greater than 130 µM, greater than 20 µM and greater than 140 µM.
On to `O=C1CN(C[C@@H](CO)NCc2c[nH]c3c(O)ncnc23)S(=O)(=O)N1`, for which the Ki in assay [1] was greater than 130 µM; in assay [2], greater than 20 µM; in assay [3], greater than 140 µM.
